The record followed here is PubChem BioAssay (NCI).

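Where inhibition never reached the appropriate level, the endpoint shown equals the highest concentration tested. Otherwise, values were interpolated linearly from a five-concentration, 48-hour dose response in 96-well plates. The concentration for 50% growth inhibition is given as GI50. At the TGI there is no net growth.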

Some test systems named below: CCRF-CEM leukemia; SF-295 CNS; U251 CNS; OVCAR-8 ovarian; COLO 205 colon; IGROV1 ovarian; A549 NSCLC; SK-MEL-5 melanoma; OVCAR-4 ovarian; MDA-MB-435; MCF7 breast; MDA-MB-231 breast.
Common to all, as to assay: DTP human tumour cell line panel, 48 h

What is called TGI is the concentration giving total growth inhibition. By GI50 is commonly meant the concentration that inhibits growth by half.

As for `CN1C(=O)N(c2nc3ccccc3[nH]2)C(C)(C)C1=O`, the TGI in the assay on CCRF-CEM leukemia, in the assay on SF-295 CNS, in the assay with U251 CNS, with OVCAR-8 ovarian, in the assay on COLO 205 colon and in the assay on IGROV1 ovarian was more than 100 µM each time. For the same compound, the concentration for total growth inhibition (TGI) with A549 NSCLC, with SK-MEL-5 melanoma and in the assay on OVCAR-4 ovarian was more than 100 µM each time.
Take `Clc1ccc(N2N=C(c3cccc(Nc4ccncc4)c3)CC2c2ccc(Br)cc2)cc1` (stereo not drawn): the GI50 is 3.43 µM in the assay on CCRF-CEM leukemia; 1.77 µM in the assay with SF-295 CNS; 1.65 µM in the assay with MDA-MB-435; 2.26 µM in the assay with COLO 205 colon; 1.8 µM with IGROV1 ovarian; 1.83 µM in the assay with OVCAR-4 ovarian. In addition, the total growth inhibition concentration (TGI) in the assay with CCRF-CEM leukemia is more than 100 µM; with SF-295 CNS it was 3.2 µM; in the assay on MDA-MB-435 it was 3.08 µM; in the assay with COLO 205 colon it was 4.76 µM; in the assay with IGROV1 ovarian, 3.41 µM; in the assay with OVCAR-4 ovarian it was 3.36 µM.
In the case of `CC(C)(C)OC(=O)C1/C(=C/CBr)CN1C(=O)OC(C)(C)C` (stereo not drawn), the total growth inhibition concentration (TGI) in the assay on CCRF-CEM leukemia came out at 6.22 µM; in the assay on SF-295 CNS, 30.5 µM; in the assay with MCF7 breast, 28.9 µM; in the assay with MDA-MB-435, 29.7 µM; with OVCAR-8 ovarian, 44.2 µM; in the assay on COLO 205 colon it was 6.1 µM. The TGI was 26.2 µM in the assay on IGROV1 ovarian, 38 µM in the assay on A549 NSCLC, 27.4 µM with SK-MEL-5 melanoma and 7.79 µM in the assay on OVCAR-4 ovarian.
As for `COc1ccc(/C=C/c2nc(=S)[nH][nH]2)cc1OC`, the TGI in the assay on CCRF-CEM leukemia, in the assay with SF-295 CNS, with U251 CNS, in the assay with OVCAR-8 ovarian, with IGROV1 ovarian and with A549 NSCLC was more than 100 µM in each case. In addition, the TGI in the assay on SK-MEL-5 melanoma and with OVCAR-4 ovarian was more than 100 µM throughout.
Turning to `COc1cc([C@@H]2c3cc4c(cc3[C@@H](NC(=O)NO)[C@H]3COC(=O)[C@H]23)OCO4)cc(OC)c1O`, the TGI in the assay on CCRF-CEM leukemia, with SF-295 CNS, in the assay with MCF7 breast, in the assay on U251 CNS, with OVCAR-8 ovarian and with COLO 205 colon was more than 100 µM throughout. Also, the TGI with MDA-MB-231 breast, in the assay with IGROV1 ovarian and with OVCAR-4 ovarian was more than 100 µM in each case. The results for the GI50 with SF-295 CNS, in the assay with MCF7 breast and with OVCAR-8 ovarian were 4.97 µM, 7.84 µM and 34.4 µM, respectively.
Turning to `CCC(=O)CCC1=Nc2nnc(CCCCc3nnc4n3C(=O)C(CCC(=O)CC)=N4)n2C1=O`, the TGI in the assay with CCRF-CEM leukemia, in the assay with SF-295 CNS, in the assay on OVCAR-8 ovarian, with COLO 205 colon, in the assay on IGROV1 ovarian and in the assay with A549 NSCLC was more than 100 µM in each case. In the assay on OVCAR-4 ovarian, this compound registered a TGI of more than 100 µM.
In the case of `CC(=O)OC(C)c1cc2c(s1)C(=O)c1ccsc1C2=O` (stereo not drawn), the TGI with CCRF-CEM leukemia was 0.653 µM; in the assay on SF-295 CNS it was 0.233 µM; in the assay with MCF7 breast, 1.24 µM; in the assay on MDA-MB-435, 0.0301 µM; in the assay with U251 CNS, 1.11 µM; in the assay with OVCAR-8 ovarian, 0.68 µM. Besides, the TGI with COLO 205 colon came out at 2.61 µM; with IGROV1 ovarian, 1.55 µM; in the assay with A549 NSCLC, 2.66 µM; in the assay with SK-MEL-5 melanoma it was 0.0743 µM; in the assay with OVCAR-4 ovarian, 1.93 µM.
As to `CCOC(OC1=C(C#N)CCCC1)C(CC)[Se]c1ccccc1[N+](=O)[O-]` (stereo not drawn), the TGI was 49.6 µM in the assay with CCRF-CEM leukemia; 47 µM in the assay on SF-295 CNS; 30.9 µM with U251 CNS; 48.7 µM in the assay on OVCAR-8 ovarian; more than 100 µM in the assay on COLO 205 colon; 72 µM in the assay on IGROV1 ovarian. The TGI is more than 100 µM in the assay with A549 NSCLC, 28.7 µM with SK-MEL-5 melanoma and 35.1 µM in the assay on OVCAR-4 ovarian.
On to `Oc1ccc(/C=N/c2nccs2)c(O)c1`, for which the TGI in the assay on SF-295 CNS was more than 100 µM; in the assay on MCF7 breast, more than 100 µM; in the assay on OVCAR-8 ovarian, more than 100 µM; in the assay with COLO 205 colon it was 92.1 µM; in the assay with MDA-MB-231 breast, more than 100 µM; with IGROV1 ovarian, more than 100 µM. Also, the concentration for total growth inhibition (TGI) with A549 NSCLC and in the assay with SK-MEL-5 melanoma was more than 100 µM throughout.
Consider `CC(O)C1OC(n2ccc(=O)[nH]c2=O)CC1n1cncn1` (stereo not drawn), for which the TGI in the assay with CCRF-CEM leukemia, with SF-295 CNS, in the assay with U251 CNS, in the assay with OVCAR-8 ovarian, with COLO 205 colon and in the assay on IGROV1 ovarian was more than 100 µM throughout. The total growth inhibition concentration (TGI) with A549 NSCLC, in the assay with SK-MEL-5 melanoma and in the assay on OVCAR-4 ovarian was more than 100 µM in each case.
For `C[Si](C)(C)/C=C/CN1C(=O)CCC1=O`, the TGI with CCRF-CEM leukemia, with U251 CNS, in the assay with COLO 205 colon, in the assay on IGROV1 ovarian, in the assay on A549 NSCLC and in the assay on SK-MEL-5 melanoma was more than 100 µM throughout.
With `CC(C)=CCOc1ccc(-c2coc3cc4c(c(O)c3c2=O)C=CC(C)(C)O4)cc1`, the TGI with CCRF-CEM leukemia, in the assay on SF-295 CNS, with U251 CNS, in the assay on OVCAR-8 ovarian, in the assay with COLO 205 colon and in the assay with IGROV1 ovarian was more than 100 µM each time. In addition, the values for the total growth inhibition concentration (TGI) in the assay on A549 NSCLC, in the assay with SK-MEL-5 melanoma and in the assay on OVCAR-4 ovarian were more than 100 µM, 0.932 µM and 80 µM, respectively.
For `C/C(=N/N)c1sc(-c2nc(C)c(/C(C)=N\N)s2)nc1C`, the TGI is more than 76.7 µM with CCRF-CEM leukemia; more than 100 µM in the assay with SF-295 CNS; more than 100 µM with U251 CNS; more than 100 µM with OVCAR-8 ovarian; more than 68.9 µM in the assay with COLO 205 colon; more than 100 µM in the assay with IGROV1 ovarian. The TGI in the assay with A549 NSCLC, in the assay on SK-MEL-5 melanoma and in the assay on OVCAR-4 ovarian was more than 100 µM in each case.
On to `O=C1C2C3C=C4c5ccccc5N(c5ccccc5)C4([C@@H]2C(=O)N1c1ccc(F)cc1)[C@H]1C(=O)N(c2ccc(F)cc2)C(=O)[C@@H]31` (stereo partly drawn), for which the TGI with CCRF-CEM leukemia, in the assay with SF-295 CNS, in the assay with U251 CNS, in the assay on OVCAR-8 ovarian, with COLO 205 colon and with A549 NSCLC was more than 100 µM in each case.
For `CC1OC(CC2C=CCc3c(O)c4c(c(O)c32)C(=O)c2ccccc2C4=O)CC(NC(=O)C(F)(F)F)C1O` (stereo not drawn), the TGI in the assay on CCRF-CEM leukemia worked out at 20.7 µM; in the assay on SF-295 CNS, 18 µM; in the assay on U251 CNS, 15.4 µM; in the assay with OVCAR-8 ovarian it was 15 µM; in the assay on COLO 205 colon it was 53.4 µM; with IGROV1 ovarian, 44.6 µM. Besides, the TGI came to 27.3 µM with SK-MEL-5 melanoma and 11.7 µM in the assay with OVCAR-4 ovarian.
